# From patent US7153855B2, “Pyrazolopyridinyl pyrimidine therapeutic compounds” (SmithKline Beecham Corporation, priority 2001, dated 2006)
# Test system: HSV-1
# Assay: HSV-1 infection of Vero 76 cells, viral DNA detected by hybridization capture (chemiluminescence)
# Format: cell-based
# Details: Human alphaherpesvirus 1; HSV-1 in Vero 76 cells, MOI=0.001, compounds incubated 40–48 hours at 37° C.; read-out: IC50
# Excerpt: In the following example, “MEM” means Minimal Essential Media; “FBS” means Fetal Bovine Serum; “NP40” and “Igepal” are detergents; “MOI” means Multiplicity of Infection; “NaOH” means sodium hydroxide; “MgCl2” means magnesium chloride; “dATP” means deoxyadenosine 5′ triphosphate; “dUTP” means deoxyuridine 5′ triphosphate; “dCTP” means dexoxycytidine 5′ triphosphate; “dGTP” means deoxyguanosine 5′ triphosphate; “GuSCN” means Guanidinium thiocyanate; “EDTA” means ethylenediamine tetraacetic acid; “TE” means Tris-EDTA; “SCC” means sodium chloride/sodium citrate; “APE” means a solution of ammonia acetate, ammonia phosphate, EDTA; “PBS” means phosphate buffered saline; and “HRP” means horseradish peroxidase.
# Vero 76 cells were maintained in MEM with Earle's salts, L-glutamine, 8% FBS (Hyclone, A-1111-L) and 100 units/mL Penicillin-100 μg/mL Streptomycin. For assay conditions, FBS was reduced to 2%. Cells are seeded into 96-well tissue culture plates at a density of 5×10^4 cells/well after being incubated for 45 min at 37° C. in the presence of HSV-1 or HSV-2 (MOI=0.001). Test compounds are added to the wells and the plates are incubated at 37° C. for 40–48 hours. Cell lysates are prepared as follows: media was removed and replaced with 150 μL/well 0.2 N NaOH with 1% Igepal CA 630 or NP-40. Plates were incubated up to 14 days at room temperature in a humidified chamber to prevent evaporation.
# For the detection probe, a gel-purified, digoxigenin-labeled, 710-bp PCR fragment of the HSV UL-15 sequence was utilized. PCR conditions included 0.5 μM primers, 180 μM dTTP, 20 μM dUTP-digoxigenin (Boehringer Mannheim 1558706), 200 μM each of dATP, dCTP, and dGTP, 1×PCR Buffer II (Perkin Elmer), 2.5 mM MgCl2, 0.025 units/μL of AmpliTaq Gold polymerase (Perkin Elmer), and 5 ng of gel-purified HSV DNA per 100 μL Extension conditions were 10 min at 95° C., followed by 30 cycles of 95° C. for 1 min, 55° C. for 30 sec, and 72° C. for 2 min. The amplification was completed with a 10-min incubation at 72° C. Primers were selected to amplify a 728 bp probe spanning a section of the HSV1 UL15 open reading frame (nucleotides 249–977). Single-stranded transcripts were purified with Promega M13 Wizard kits. The final product was mixed 1:1 with a mixture of 6 M GuSCN, 100 mM EDTA and 200 μg/mL herring sperm DNA and stored at 4° C.
# The capture DNA plasmid (HSV UL13 region in pUC) was linearized by cutting with Xba I, denatured for 15 min at 95° C. and diluted immediately into Reacti-Bind DNA Coating Solution (Pierce, 17250, diluted 1:1 with TE buffer, pH 8) at 1 ng/μL 75 μL/well were added to Corning (#3922 or 9690) white 96-well plates and incubated at room temperature for at least 4 hrs before washing twice with 300 μL/well 0.2×SSC/0.05% Tween-20 (SSC/T buffer). The plates were then incubated overnight at room temperature with 150 μL/well 0.2 N NaOH, 1% IGEPAL and 10 μg/mL herring sperm DNA.
# Twenty-seven (27) μL of cell lysate was combined with 45 μL of hybridization solution (final concentration: 3M GuSCN, 50 mM EDTA, 100 μg/ml salmon sperm DNA, 5×Denhardt's solution, 0.25×APE, and 5 ng of the digoxigenin-labeled detection probe). APE is 1.5 M NH4-acetate, 0.15 M NH4H2 phosphate, and 5 mM EDTA adjusted to pH 6.0. Mineral oil (50 μL) was added to prevent evaporation. The hybridization plates were incubated at 95° C. for 10 minutes to denature the DNA, then incubated at 42° C. overnight. The wells were washed 6× with 300 μL/well SSC/T buffer then incubated with 75 μL/well anti-digoxigenin-HRP-conjugated antibody (Boehringer Mannheim 1207733, 1:5000 in TE) for 30 min at room temperature. The wells were washed 6× with 300 μL/well with PBS/0.05% Tween-20 before 75 μL/well SuperSignal LBA substrate (Pierce) was added. The plates were incubated at room temperature for 30 minutes and chemiluminescence was measured in a Wallac Victor reader.
# The following results were obtained for HSV-1.
row,IC50,SMILES
1,0.3 µM,"COc1ccc(-c2nn3c(NC4CCCC4)cccc3c2-c2ccnc(NC3CCCC3)n2)cc1 [Example 1, N-Cyclopentyl-3-[2-(cyclopentylamino)-4-pyrimidinyl]-2-(4-methoxyphenyl)-pyrazolo[1,5-a]pyridin-7-amine]"
2,0.6 µM,"COc1ccc(-c2nn3c(N4CCCC4)cccc3c2-c2ccnc(NC3CCCC3)n2)cc1 [Example 2, N-Cyclopentyl-4-[2-(4-methoxyphenyl)-7-(1-pyrrolidinyl)pyrazolo[1,5-a]pyridin-3-yl]-2-pyrimidinamine]"
3,5 µM,"COc1ccc(-c2nn3c(N4CCCC4)cccc3c2-c2ccnc(N)n2)cc1 [Example 3, 4-[2-(4-Methoxyphenyl)-7-(1-pyrrolidinyl)pyrazolo[1,5-a]pyridin-3-yl]-2-pyrimidinamine]"
4,1 µM,"Oc1ccc(-c2nn3c(NC4CCCC4)cccc3c2-c2ccnc(NC3CCCC3)n2)cc1 [Example 4, 4-{7-(Cyclopentylamino)-3-[2-(cyclopentylamino)-4-pyrimidinyl]pyrazolo-[1,5-a]pyridin-2-yl}phenol]"
5,2 µM,"Oc1ccc(-c2nn3c(N4CCCC4)cccc3c2-c2ccnc(NC3CCCC3)n2)cc1 [Example 5, 4-[3-[2-(Cyclopentylamino)-4-pyrimidinyl]-7-(1-pyrrolidinyl)pyrazolo[1,5-a]pyridin-2-yl]phenol]"
6,5 µM,"Nc1nccc(-c2c(-c3ccc(O)cc3)nn3c(N4CCCC4)cccc23)n1 [Example 6, 4-[3-(2-Amino-4-pyrimidinyl)-7-(1-pyrrolidinyl)pyrazolo[1,5-a]pyridin-2-yl]phenol]"
7,0.15 µM,"C=CCOc1ccc(-c2nn3c(NC4CCCC4)cccc3c2-c2ccnc(NC3CCCC3)n2)cc1 [Example 7, 2-[4-(Allyloxy)phenyl]-N-cyclopentyl-3-[2-(cyclopentylamino)-4-pyrimidinyl]pyrazolo[1,5-a]pyridin-7-amine]"
8,3 µM,"CCOC(=O)COc1ccc(-c2nn3c(NC4CCCC4)cccc3c2-c2ccnc(NC3CCCC3)n2)cc1 [Example 8, Ethyl (4-{7-(cyclopentylamino)-3-[2-(cyclopentylamino)-4-pyrimidinyl]-pyrazolo[1,5-a]pyridin-2-yl}phenoxy)acetate]"
9,0.3 µM,"c1cc(NC2CCCC2)n2nc(-c3ccc(OCC4CC4)cc3)c(-c3ccnc(NC4CCCC4)n3)c2c1 [Example 11, N-Cyclopentyl-3-[2-(cyclopentylamino)-4-pyrimidinyl]-2-[4-(cyclopropyl-methoxy)phenyl]pyrazolo[1,5-a]pyridin-7-amine]"
10,2 µM,"c1cc(NC2CCCC2)n2nc(-c3ccc(OCC4CCC4)cc3)c(-c3ccnc(NC4CCCC4)n3)c2c1 [Example 12, 2-[4-(Cyclobutylmethoxy)phenyl]-N-cyclopentyl-3-[2-(cyclopentylamino)-4-pyrimidinyl]pyrazolo[1,5-a]pyridin-7-amine]"
11,1 µM,"c1ccc(Oc2ccc(-c3nn4c(NC5CCCC5)cccc4c3-c3ccnc(NC4CCCC4)n3)cc2)cc1 [Example 13, N-Cyclopentyl-3-[2-(cyclopentylamino)-4-pyrimidinyl]-2-(4-phenoxyphenyl)pyrazolo[1,5-a]pyridin-7-amine]"
12,1 µM,"CCCCNc1nccc(-c2c(-c3ccc(-c4ccccc4)cc3)nn3c(NCCCC)cccc23)n1 [Example 15, 2-[1,1′-Biphenyl]-4-yl-N-butyl-3-[2-(butylamino)-4-pyrimidinyl]pyrazolo-[1,5-a]pyridin-7-amine]"
13,1 µM,"CCCCNc1nccc(-c2c(-c3ccc(N)cc3)nn3c(NCCCC)cccc23)n1 [Example 16, N-{4-[2-(4-Aminophenyl)-7-(butylamino)pyrazolo[1,5-a]pyridin-3-yl]-2-pyrimidinyl}-N-butylamine]"
14,1.5 µM,"CCCCNc1nccc(-c2c(-c3ccc(NC4CCCCC4)cc3)nn3c(NCCCC)cccc23)n1 [Example 17, N-Butyl-3-[2-(butylamino)-4-pyrimidinyl]-2-[4-(cyclohexylamino)phenyl]-pyrazolo[1,5-a]pyridin-7-amine]"
15,9 µM,"C=C(C)c1ccc(-c2nn3c(NCCCC)cccc3c2-c2ccnc(NCCCC)n2)cc1 [Example 18, N-Butyl-3-[2-(butylamino)-4-pyrimidinyl]-2-(4-isopropenylphenyl)-pyrazolo[1,5-a]pyridin-7-amine]"
16,0.5 µM,"CCCCNc1nccc(-c2c(-c3ccc(Nc4ccccc4)cc3)nn3c(NCCCC)cccc23)n1 [Example 19, 2-(4-Anilinophenyl)-N-butyl-3-[2-(butylamino)-4-pyrimidinyl]pyrazolo[1,5-a]pyridin-7-amine]"
17,16 µM,"CCCCNc1nccc(-c2c(-c3ccc(Nc4ccccc4)cc3)nn3c(N(CCCC)c4ccccc4)cccc23)n1 [Example 20, 2-(4-Anilinophenyl)-N-butyl-3-[2-(butylamino)-4-pyrimidinyl]-N-phenylpyrazolo[1,5-a]pyridin-7-amine]"
18,15 µM,"CCCCNc1nccc(-c2c(-c3ccc(N(CC4CC4)CC4CC4)cc3)nn3c(NCCCC)cccc23)n1 [Example 21, 2-{4-[Bis(cyclopropylmethyl)amino]phenyl}-N-butyl-3-[2-(butylamino)-4-pyrimidinyl]pyrazolo[1,5-a]pyridin-7-amine]"
19,0.6 µM,"CCCCNc1nccc(-c2c(-c3ccc(NCC4CC4)cc3)nn3c(NCCCC)cccc23)n1 [Example 22, N-butyl-3-[2-(butylamino)-4-pyrimidinyl]-2-{4-[(cyclopropylmethyl)amino]phenyl}pyrazolo[1,5-a]pyridin-7-amine]"
20,2 µM,"CCCCNc1nccc(-c2c(-c3ccc(N(C)C)cc3)nn3c(NCCCC)cccc23)n1 [Example 23, N-Butyl-3-[2-(butylamino)-4-pyrimidinyl]-2-[4-(dimethylamino)phenyl]-pyrazolo[1,5-a]pyridin-7-amine]"
21,0.9 µM,"Brc1ccccc1-c1nn2c(NC3CCCC3)cccc2c1-c1ccnc(NC2CCCC2)n1 [Example 24, 2-(2-Bromophenyl)-N-cyclopentyl-3-[2-(cyclopentylamino)-4-pyrimidinyl]pyrazolo[1,5-a]pyridin-7-amine]"
22,0.2 µM,"Brc1cccc(-c2nn3c(NC4CCCC4)cccc3c2-c2ccnc(NC3CCCC3)n2)c1 [Example 25, 2-(3-Bromophenyl)-N-cyclopentyl-3-[2-(cyclopentylamino)-4-pyrimidinyl]pyrazolo[1,5-a]pyridin-7-amine]"
23,0.6 µM,"Brc1cccc(-c2nn3c(N4CCCC4)cccc3c2-c2ccnc(NC3CCCC3)n2)c1 [Example 26, 4-[2-(3-Bromophenyl)-7-(1-pyrrolidinyl)pyrazolo[1,5-a]pyridin-3-yl]-N-cyclopentyl-2-pyrimidinamine]"

row,SMILES,IC50
1,"CCCCOc1ccc(-c2nn3c(NC4CCCC4)cccc3c2-c2ccnc(NC3CCCC3)n2)cc1 [Example 9, 2-(4-Butoxyphenyl)-N-cyclopentyl-3-[2-(cyclopentylamino)-4-pyrimidinyl]-pyrazolo[1,5-a]pyridin-7-amine]",3 µM
2,"CC(C)COc1ccc(-c2nn3c(NC4CCCC4)cccc3c2-c2ccnc(NC3CCCC3)n2)cc1 [Example 10, N-Cyclopentyl-3-[2-(cyclopentylamino)-4-pyrimidinyl]-2-(4-isobutoxyphenyl)pyrazolo [1,5-a]pyridin-7-amine]",0.9 µM
